For orientation: IC50 means the concentration that inhibits the measured activity by half. By MIC is commonly meant the lowest concentration found to suppress growth.

The target in assay [1] is T1, Pseudomonas aeruginosa LpxC enzyme (Pseudomonas aeruginosa, UniProt P47205).
T1 construct: made in house; host or cells: E. coli
T1 sequence (P47205 1-303): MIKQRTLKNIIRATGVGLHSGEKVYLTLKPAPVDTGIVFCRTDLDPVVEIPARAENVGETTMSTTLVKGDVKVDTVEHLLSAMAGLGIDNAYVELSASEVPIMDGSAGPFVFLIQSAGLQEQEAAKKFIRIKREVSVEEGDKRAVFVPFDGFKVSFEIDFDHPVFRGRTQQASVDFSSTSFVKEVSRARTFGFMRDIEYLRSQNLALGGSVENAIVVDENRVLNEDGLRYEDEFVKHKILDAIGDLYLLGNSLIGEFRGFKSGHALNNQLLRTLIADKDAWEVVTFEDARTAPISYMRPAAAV
As to the kind of experiment: LpxC enzyme IC50 assay (PA LpxC enzyme IC50), BioTrove RapidFire mass spectrometry. Type of assay: biochemical. As to the method:
In order to assess the compounds biological activity selected in vitro assays were conducted on selected compounds. One of the assays measured the compounds ability to disrupt the synthesis of lipopolysaccharide, LPS, which is a component of the outer membrane of Gram-negative bacteria. Disruption of this synthesis is lethal to the bacteria. The assay determined the compound's ability to inhibit LpxC, which is the first enzyme in the biosynthetic pathway for LPS (measured as IC50). Additionally, MICs (minimal inhibitory concentrations) were determined for several bacteria. The specific protocols are described below:
A) IC50 Assay LpxC Enzyme from P. aeruginosa Labeled as PA LpxC Enzyme IC50):
At the end of 1 hour, 5 ul of 1 N HCl was added to stop the enzyme reaction, the plates were centrifuged, and then processed with the BioTrove Rapidfire HTMS Mass Spectrometry System. A no-enzyme control was used in calculating the IC50 values from the percent conversion values.

The subject of assay [2] is Pseudomonas aeruginosa UC12120 (mouse virulent). As to the kind of experiment: MIC determination (CLSI), PA-UC12120. Format: cell-based. The settings on record: UC12120, read-out: PA-UC12120 MIC. The protocol:
(§1) The in vitro antibacterial activity of compounds described in the Examples was evaluated by minimum inhibitory concentration (MIC) testing according to Clinical and Laboratory Standards Institute (CLSI). See: Clinical and Laboratory Standards Institute. Methods for Dilution Antimicrobial Susceptibility Tests for Bacteria that Grow Aerobically; Approved Standard-Eighth Edition. CLSI document M7-A8 [ISBN 1-56238-689-1]. Clinical and Laboratory Standards Institute, 940 West Valley Road, Suite 1400, Wayne, Pa. 19087-1898 USA, 2006; also Clinical and Laboratory Standards Institute. Performance Standards for Antimicrobial Susceptibility Testing; Twentieth Informational Supplement. CLSI document M100-S20 [ISBN1-56238-716-2]. Clinical and Laboratory Standards Institute.
(§2) The MIC determination is a standard laboratory method for evaluating the antibacterial activity of a compound. The MIC represents the lowest drug concentration that inhibits visible growth of bacteria following overnight incubation. […] Typically, the drug concentration range is broken down into 2-fold increments (e.g., 0.06 μg/mL, 0.12 μg/mL. 0.25 μg/mL, 0.50 μg/mL, 1.0 μg/mL, etc.) and the various drug concentrations are all individually incubated overnight with approximately the same number of bacteria. The MIC is then determined by visually inspecting the drug effect at each concentration, and identifying the lowest drug concentration that has inhibited bacterial growth as compared to the drug free control. Typically, bacteria continue to grow at drug concentrations lower than the MIC and don't grow at concentrations at and above the MIC.
(§3) The MIC values described in Tables 4 and 5 below were derived from assays wherein each test compound was evaluated in duplicate. In cases where the duplicate values varied by 0-2-fold, the lower of the two values was reported below. Generally speaking, if the duplicate values varied by more than 2-fold, the assay was considered non-valid and was repeated until the variation between duplicate runs was 2-fold. In line with the CLSI guidelines referred to above, both control organisms and reference compounds were utilized in each MIC assay to provide proper quality control. MIC values generated with these control organisms and reference compounds were required to fall within a defined range for the assay to be considered valid and be included herein. Those skilled in the art will recognize that MIC values can and do vary from experiment to experiment. Generally speaking, it should be recognized that MIC values often vary +/−2-fold from experiment to experiment. While a single MIC is reported for each compound and each microorganism, the reader should not conclude that each compound was only tested once. Several of the compounds were subjected to multiple tests. The data reported in Tables 4 and 5 is reflective of the compound's relative activity and different MICs may have been generated on these occasions in line with the guidelines described above.
(§4) The following bacterial strains were used in these MIC determinations:
1) Pseudomonas aeruginosa UC12120 (mouse virulent) labeled as PA-UC12120 in Tables 4 and 5;

In assay [3] the test system is Escherichia coli EC-1: VOGEL, mouse virulent. As to the kind of experiment: MIC determination (CLSI), EC-1. The conditions noted are these: read-out: EC-1 MIC. Type of assay: cell-based. As to the method: as §1, §2, §3, §4
2) Escherichia coli EC-1: VOGEL, mouse virulent labeled as EC-1 in Tables 4 and 5;

In assay [4] the test system is Acinetobacter baumannii/haemolyticus: Multidrug-resistant clinical isolate AB-3167. As to the kind of experiment: MIC determination (CLSI), AB-3167. Format: cell-based. The settings on record: overnight incubation, duplicate, lower of the two values reported. As to the method: as §1, §2, §3, §4
3) Acinetobacter baumannii/haemolyticus: Multidrug-resistant clinical isolate labeled as AB-3167 in Tables 4 and 5;

Where [5] appears, read: P. aeruginosa LpxC enzyme 0.1 nM, 25° C., 1 hour, pH 8.0, read-out: PA:IC50.

Values after ≈ are worked out from the molar mass of the structure shown. Like-named read-outs stand apart in the source and are kept apart here.

For the molecule `COc1cccc(OC)c1-c1cc(CCC(C)(C(=O)NO)S(C)(=O)=O)no1` (racemic) [Example 24, 4-[5-(2,6-dimethoxyphenyl)isoxazol-3-yl]-N-hydroxy-2-methyl-2-(methylsulfonyl)butanamide], in assay [1] (setting [5]), the IC50 was above 100 nM. The MIC in assay [2], in assay [3] and in assay [4] was above 64 µg/mL each time.
As for `CC(CCc1cc(-c2ccc(N3CCOCC3)c(F)c2)no1)(C(=O)NO)S(C)(=O)=O` (racemic) [Example 48, 4-[3-(3-fluoro-4-morpholin-4-ylphenyl)isoxazol-5-yl]-N-hydroxy-2-methyl-2-(methylsulfonyl)butanamide], the IC50 in assay [1] (setting [5]) is 24.2 nM. The values for the MIC in assay [2], in assay [3] and in assay [4] were 32 µg/mL (≈ 72.5 µM), 32 µg/mL (≈ 72.5 µM) and above 64 µg/mL, respectively.
In assay [1], `Cc1ccc(-c2cc(CCC(C)(C(=O)NO)S(C)(=O)=O)on2)cc1` (racemic) [Example 38, N-hydroxy-2-methyl-4-[3-(4-methylphenyl)isoxazol-5-yl]-2-(methylsulfonyl)butanamide] showed an IC50 of 2.9 nM. Further, the MIC is 1 µg/mL (≈ 2.84 µM) in assay [2], 8 µg/mL (≈ 22.7 µM) in assay [3] and above 64 µg/mL in assay [4].
Take `CC(CCc1cc(-c2ccc(F)cc2F)no1)(C(=O)NO)S(C)(=O)=O` (racemic) [Example 50, 4-[3-(2,4-difluorophenyl)isoxazol-5-yl]-N-hydroxy-2-methyl-2-(methylsulfonyl)butanamide]: the MIC is 1 µg/mL (≈ 2.67 µM) in assay [2], 16 µg/mL (≈ 42.7 µM) in assay [3] and above 64 µg/mL in assay [4].
In assay [1], `C[C@@](CCc1cc(-c2ccccc2)on1)(C(=O)NO)S(C)(=O)=O` [Example 6, (2R)-N-hydroxy-2-methyl-2-(methylsulfonyl)-4-(5-phenylisoxazol-3-yl)butanamide] displayed an IC50 of 0.51 nM. In addition, the MIC in assay [2] is 0.25 µg/mL (≈ 0.739 µM); in assay [3], 8 µg/mL (≈ 23.6 µM); in assay [4], above 64 µg/mL.
In the case of `Cc1cccc(-c2cc(CCC(C)(C(=O)NO)S(C)(=O)=O)no2)c1` (racemic) [Example 13, N-hydroxy-2-methyl-4-[5-(3-methylphenyl)isoxazol-3-yl]-2-(methylsulfonyl)butanamide], the MIC came out at 1 µg/mL (≈ 2.84 µM) in assay [2], 32 µg/mL (≈ 90.8 µM) in assay [3] and 64 µg/mL (≈ 182 µM) in assay [4].
Take `CC(CCc1cc(-c2cnc3ccccc3c2)no1)(C(=O)NO)S(C)(=O)=O` (racemic) [Example 40, N-hydroxy-2-methyl-2-(methylsulfonyl)-4-(3-quinolin-3-ylisoxazol-5-yl)butanamide]: the IC50 in assay [1] (setting [5]) amounted to 25.2 nM.
In the case of `COc1ccccc1SCc1cc(CCC(C)(C(=O)NO)S(C)(=O)=O)no1` (racemic) [Example 19, N-hydroxy-4-(5-{[(2-methoxyphenyl)thio]methyl}isoxazol-3-yl)-2-methyl-2-(methylsulfonyl)butanamide], the values for the MIC in assay [2], in assay [3] and in assay [4] were 64 µg/mL (≈ 154 µM), above 64 µg/mL and above 64 µg/mL, respectively.
As for `COc1ccc(-c2cc(CC[C@](C)(C(=O)NO)S(C)(=O)=O)no2)c(F)c1` [Example 5, (2R)-4-[5-(2-fluoro-4-methoxyphenyl)isoxazol-3-yl]-N-hydroxy-2-methyl-2-(methylsulfonyl)butanamide], the MIC in assay [2] was 0.25 µg/mL (≈ 0.647 µM); in assay [3] it was 4 µg/mL (≈ 10.4 µM); in assay [4], above 64 µg/mL.
As for `CC(CCc1cc(C(=O)NC2CCCCC2)no1)(C(=O)NO)S(C)(=O)=O` (racemic) [Example 45, N-cyclohexyl-5-[4-(hydroxyamino)-3-methyl-3-(methylsulfonyl)-4-oxobutyl]isoxazole-3-carboxamide], the MIC in assay [2], in assay [3] and in assay [4] was above 64 µg/mL in each case.
For `CC(CCc1cc(-c2ccnc3ccccc23)no1)(C(=O)NO)S(C)(=O)=O` (racemic) [Example 46, N-hydroxy-2-methyl-2-(methylsulfonyl)-4-(3-quinolin-4-ylisoxazol-5-yl)butanamide], in assay [1] (setting [5]), the IC50 worked out at 5.4 nM.
As for `CC(CCc1cc(-c2ccc(F)cc2F)on1)(C(=O)NO)S(C)(=O)=O` (racemic) [Example 28, 4-[5-(2,4-difluorophenyl)isoxazol-3-yl]-N-hydroxy-2-methyl-2-(methylsulfonyl)butanamide], the IC50 in assay [1] (setting [5]) amounted to 2.8 nM.
As to `CC(CCc1cc(COc2ccc3c(c2)OCO3)on1)(C(=O)NO)S(C)(=O)=O` (racemic) [Example 26, 4-{5-[(1,3-benzodioxol-5-yloxy)methyl]isoxazol-3-yl}-N-hydroxy-2-methyl-2-(methylsulfonyl)butanamide], the MIC in assay [2] was 4 µg/mL (≈ 9.7 µM); in assay [3], 16 µg/mL (≈ 38.8 µM); in assay [4] it was above 64 µg/mL.
For `CC(CCc1cc(-c2ccc(Cl)c(Cl)c2)on1)(C(=O)NO)S(C)(=O)=O` (racemic) [Example 20, 4-[5-(3,4-dichlorophenyl)isoxazol-3-yl]-N-hydroxy-2-methyl-2-(methylsulfonyl)butanamide], the MIC came out at 1 µg/mL (≈ 2.46 µM) in assay [2], 4 µg/mL (≈ 9.82 µM) in assay [3] and 16 µg/mL (≈ 39.3 µM) in assay [4].
For the molecule `COc1cccc(-c2cc(CC[C@](C)(C(=O)NO)S(C)(=O)=O)no2)c1F` [Example 2, (2R)-4-[5-(2-Fluoro-3-methoxyphenyl)isoxazol-3-yl]-N-hydroxy-2-methyl-2-(methylsulfonyl)butanamide], the MIC in assay [2] turned out to be 16 µg/mL (≈ 41.4 µM); in assay [3] it was 16 µg/mL (≈ 41.4 µM); in assay [4], 32 µg/mL (≈ 82.8 µM).
With `CC(CCc1cc(CCCCCCCCCO)on1)(C(=O)NO)S(C)(=O)=O` (racemic) [Example 15, N-hydroxy-4-[5-(9-hydroxynonyl)isoxazol-3-yl]-2-methyl-2-(methylsulfonyl)butanamide], the values for the MIC in assay [2], in assay [3] and in assay [4] were 4 µg/mL (≈ 9.89 µM), 16 µg/mL (≈ 39.6 µM) and above 64 µg/mL, respectively.
As for `COc1cccc(-c2cc(CCC(C)(C(=O)NO)S(C)(=O)=O)no2)c1` (racemic) [Example 29, N-hydroxy-4-[5-(3-methoxyphenyl)isoxazol-3-yl]-2-methyl-2-(methylsulfonyl)butanamide], the MIC was 8 µg/mL (≈ 21.7 µM) in assay [2], 64 µg/mL (≈ 174 µM) in assay [3] and above 64 µg/mL in assay [4].
For `CC(CCc1cc(CN(CCOc2ccccc2)C2CC2)on1)(C(=O)NO)S(C)(=O)=O` (racemic) [Example 18, 4-(5-{[cyclopropyl(2-phenoxyethyl)amino]methyl}isoxazol-3-yl)-N-hydroxy-2-methyl-2-(methylsulfonyl)butanamide] the same measures were above 64 µg/mL, above 64 µg/mL and above 64 µg/mL.
For `COc1ccc(C(=O)NCc2cc(CCC(C)(C(=O)NO)S(C)(=O)=O)no2)cc1` (racemic) [Example 11, N-({3-[4-(hydroxyamino)-3-methyl-3-(methylsulfonyl)-4-oxobutyl]isoxazol-5-yl}methyl)-4-methoxybenzamide], in that order: above 64 µg/mL, above 64 µg/mL and above 64 µg/mL.
